# Measurements: the pKa sets of Baltruschat and Czodrowski (2020)
# Settings: basic group
row,SMILES,pKa
1,Oc1cc2cccnc2c2cccnc12,3.9
2,CCCCCCCCCCCCNc1ccccc1,4.12
3,Cc1ccn(C)c2nc3ccccc3c1-2,8.35
4,Nc1c(Br)cccc1Br,0.36
5,Cn1cnc2[nH]c(=O)[nH]c(=O)c21,0.87
6,Nc1n[nH]c(N)c1/N=N/c1ccc(O)cc1,3.48
7,C1=CN2CCC1CC2,9.82
8,C[n+]1c([S-])ccnc1[S-],6.96
9,NC(=S=O)c1ccccc1,0.8
10,CC(C)N(C(C)C)C(C)C,11.9
11,CCCCCCCCCCN,10.6
12,C1CCCNCCCCCCNCC1,9.6
13,CC(O)CN(Cc1ccccc1)CC(C)O (configuration not stated),7.5
14,CCN(CC)CC(=O)Nc1ccc(C)cc1,8.13
15,Cc1n[nH]c2cc(N)ccc12,4
16,CN(C)c1ccc(Br)cc1,4.25
17,COc1ccc(/N=N/c2ccncc2)cc1,4.53
18,CCCCNCCC(=O)[O-],10.6
19,Nc1ccc2nc3ccccc3nc2c1,4.52
20,CCN(CC)c1nc(N)nc(N(CC)CC)n1,6.28
21,Cc1ncc[nH+]c1C,-4.17
22,c1[nH]c(Cc2c[nH]c(Cc3[nH]cc(Cc4c[nH]c[nH+]4)[nH+]3)n2)c[nH+]1,3.58

row,SMILES,pKa
1,Nc1cccc2nccnc12,2.62
2,CN(C)/C=N/c1cccc([N+](=O)[O-])c1,7.29
3,Cc1ccc2c(ccn2C)c1,-2.15
4,c1c(CN2CC[NH2+]CC[NH2+]CC2)n[nH]c1CN1CCNCC[NH2+]CC1,6.08
5,c1ccc(-c2ncc[nH]2)nc1,5.46
6,O=[N+]([O-])c1ccc(Nc2ccccc2)cc1,-2.5
7,CC(C)N1CCCCC1,11
8,CC(N)CC#N (configuration not stated),7.85
9,Nc1ccc2ccc([N+](=O)[O-])cc2c1,3.13
10,NC12CCC(CC1)C2,10.2
11,CN(C)c1cccc2cccc(N(C)C)c12,12.1
12,CCCNC(=O)[C@H](Cc1c[nH]cn1)NC(=O)c1cccc(CNCC[NH3+])n1,6.5
13,CC[NH+](CC)CCNc1cc(Nc2ccc(Cl)cc2)nc(C)n1,5.42
14,COc1ccc(O)c(CNC(CO)C(=O)[O-])c1 (configuration not stated),8.3
15,Nc1nc([S-])[nH+]c([O-])c1C1=CCCCC1,7.11
16,[O-]c1ccncc1,11.1
17,CC(C)(N)Cc1ccccc1,10.1
18,CNc1ccc(O)cc1,6
19,CCN(CC)CCC#N,7.62
20,CCCNCCNCCC,10.3
21,NC(=O)CN(CCN(CC(N)=O)Cc1ccccc1O)Cc1ccccc1O,6.54
22,c1c(CN2CCNCC[NH2+]CC2)n[nH]c1CN1CCNCCNCC1,10.5

row,SMILES,pKa
1,CCCCCCCCCCCCCN,10.6
2,[O-]c1ccnc[nH+]1,1.77
3,CC(N)c1ccccc1 (configuration not stated),9.36
4,c1cc([C@@H]2CCCN2)nc([C@@H]2CCCN2)c1,10.1
5,Nc1ccc(-c2ncc(-c3ccc(Br)cc3)o2)cc1,2.8
6,C[C@@H]1CCC[C@H](C)N1CC(C)(C)O,10.7
7,[O-]c1ccc(Cl)cc1CN1CCCCC1,11.8
8,[O-]c1ccnc2nccnc12,8.78
9,Clc1ccc(Nc2ccccc2)cc1,0
10,CC1=NCCCCN1,12.7
11,Nc1ccc(Cl)cc1[N+](=O)[O-],-0.88
12,COc1ccccc1C(=O)N[C@@H]1C[C@H]2CC[C@@H](C1)N2Cc1ccccc1,8.88
13,CC(C)N(C)/C=N/c1ccc(-c2c[nH]cn2)cc1,8.72
14,C1=C(c2ccccc2)C2CCN1CC2,9.1
15,Cc1cc(C(c2ccc(N)cc2)c2ccc([NH3+])cc2)ccc1[NH3+],2.6
16,CCCCN1CCCC1C (configuration not stated),10.7
17,O=Cc1ccccn1,3.86
18,Cc1cc(-c2ccccc2)nn2ccnc12,4.84
19,OCc1nc2cc(Cl)ccc2[nH]1,4.63
20,c1ccc2cnccc2c1,5.36
21,Nc1ccc(-c2ccc(/[NH+]=C/c3ccc(O)cc3)cc2)cc1,5.05
22,Cc1n[nH]c(C)c1Cl,2.23

row,SMILES,pKa
1,O=C(CCCN1CCOCC1)c1ccccc1,7.26
2,O=C(Cc1ccccc1Nc1c(Cl)cccc1Cl)OCCN1CCOCC1,7.52
3,NCC(=O)Nc1ccc([N+](=O)[O-])cc1,8.5
4,Cc1ccnc(NS(=O)(=O)c2ccc(N)cc2)n1,2.08
5,Cc1ccc(C(=N)c2ccccc2)c(C)c1,6.79
6,CCCCNN,7.82
7,C#CCCCN(C)C,8.88
8,N/C(=[NH+]\O)c1ccccc1N,2.2
9,c1cnc2c(c1)ccc1c3c(cnc12)CCCC3,5.66
10,CC(=O)c1cccc(N)c1,3.61
11,O=[N+]([O-])c1cc(CN2CCCCC2)c([O-])c2ccccc12,10.7
12,NCC(O)c1ccc(Cl)cc1 (configuration not stated),9.04
13,CCCCC(CC)CNc1ncnc2[nH]ncc12 (configuration not stated),4.6
14,Oc1ccc2ccncc2c1,5.7
15,Cc1cnc2ccccc2n1,0.95
16,CCOC(=O)C1(c2ccccc2)CCN(CC)CC1,9.03
17,Cc1ccccc1CN(C)C,8.71
18,CCc1ncc[nH]1,8.05
19,CCC(C)(C)N(C)C(C)(C)C,11.9
20,CC(C)(C)N1NC2CCC1C2 (configuration not stated),9.12
21,c1cc2nccnc2cn1,2.5
